Several values for one entry are separate records, joined by “and”; a condition that tells them apart may be missing. Equal values may be shown once.
Experiments:
p-AKT Ser473 [1] = assay: Western blot, TPO-activated AKT phosphorylation in BaF3/MPL cells; assay type: cell-based; conditions: then TPO 50 ng/mL 10 min
Description: (§1) In addition, Compound B was examined for the effects on the PI3K signaling pathway by determining the levels of AKT and S6 phosphorylation with or without TPO activation. Two cell lines, BaF3/MPL and UT-7/TPO sensitive or responsive to TPO activation were used. The cells were starved (i.e. growing on medium having less FBS) in […] FBS/RPMI for two hours before treated with 0.1, 1.0, or 2.0 μM of Compound B or vehicle (0.1% DMSO in RPMI) for 2 hours at 37° C. To examine the TPO-activated phosphorylation, the cells were then treated or activated with 50 ng/mL of human recombinant TPO (Peprotech) for 10 minutes at 37° C. The TPO activation or treatment may reflect the conditions in diseased cells as the PI3K pathway is activated by TPO in myelofibrosis. After treating with compound and/or TPO, the cells were collected, lysed by lysis buffer (Cell Signaling), separated by SDS-PAGE, and analyzed by the Western blot using antibodies specific to p-AKT Ser473 or pS6 Ser235/236 (Cell Signaling). The phosphorylation levels in treated cells were calculated and compared to those of untreated cells (i.e. vehicle as negative control).

[2] = Plasma concentration in patient at clinical dose; assay type: in vivo, human; conditions: clinical dose 150 mg, twice a day
PI3Kδ = PI3Kδ (Homo sapiens, UniProt O00329); assay: TR-FRET in vitro biochemical enzyme assay of class I PI3K isoforms
Chain of PI3Kδ (O00329 whole entry, canonical isoform): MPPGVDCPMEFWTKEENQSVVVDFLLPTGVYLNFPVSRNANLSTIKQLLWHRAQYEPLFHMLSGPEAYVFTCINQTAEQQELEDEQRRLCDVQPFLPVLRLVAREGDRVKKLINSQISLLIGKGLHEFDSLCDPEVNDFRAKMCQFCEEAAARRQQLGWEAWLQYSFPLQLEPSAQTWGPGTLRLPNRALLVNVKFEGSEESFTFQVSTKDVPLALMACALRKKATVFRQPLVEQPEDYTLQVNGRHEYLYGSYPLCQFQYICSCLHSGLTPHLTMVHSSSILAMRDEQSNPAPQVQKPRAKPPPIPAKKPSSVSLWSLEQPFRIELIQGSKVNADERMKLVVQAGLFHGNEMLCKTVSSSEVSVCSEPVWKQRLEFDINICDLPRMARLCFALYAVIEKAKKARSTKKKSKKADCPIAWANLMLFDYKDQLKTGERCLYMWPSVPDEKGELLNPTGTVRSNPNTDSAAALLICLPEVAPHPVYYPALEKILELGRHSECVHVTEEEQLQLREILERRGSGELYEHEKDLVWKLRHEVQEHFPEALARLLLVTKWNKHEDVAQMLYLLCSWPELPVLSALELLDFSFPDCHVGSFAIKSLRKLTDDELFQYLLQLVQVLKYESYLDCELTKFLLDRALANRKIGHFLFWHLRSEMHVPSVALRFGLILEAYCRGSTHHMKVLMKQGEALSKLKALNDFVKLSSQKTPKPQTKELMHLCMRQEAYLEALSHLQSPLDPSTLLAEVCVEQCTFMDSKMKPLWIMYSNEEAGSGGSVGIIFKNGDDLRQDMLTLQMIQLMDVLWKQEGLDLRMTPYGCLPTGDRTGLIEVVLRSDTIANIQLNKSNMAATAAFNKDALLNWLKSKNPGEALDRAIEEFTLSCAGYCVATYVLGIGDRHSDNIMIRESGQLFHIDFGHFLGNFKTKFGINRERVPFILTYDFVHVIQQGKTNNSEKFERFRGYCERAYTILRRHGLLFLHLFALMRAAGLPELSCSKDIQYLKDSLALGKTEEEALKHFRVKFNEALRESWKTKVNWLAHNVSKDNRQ
Chain of PI3Kδ (P27986 whole entry partner, canonical isoform): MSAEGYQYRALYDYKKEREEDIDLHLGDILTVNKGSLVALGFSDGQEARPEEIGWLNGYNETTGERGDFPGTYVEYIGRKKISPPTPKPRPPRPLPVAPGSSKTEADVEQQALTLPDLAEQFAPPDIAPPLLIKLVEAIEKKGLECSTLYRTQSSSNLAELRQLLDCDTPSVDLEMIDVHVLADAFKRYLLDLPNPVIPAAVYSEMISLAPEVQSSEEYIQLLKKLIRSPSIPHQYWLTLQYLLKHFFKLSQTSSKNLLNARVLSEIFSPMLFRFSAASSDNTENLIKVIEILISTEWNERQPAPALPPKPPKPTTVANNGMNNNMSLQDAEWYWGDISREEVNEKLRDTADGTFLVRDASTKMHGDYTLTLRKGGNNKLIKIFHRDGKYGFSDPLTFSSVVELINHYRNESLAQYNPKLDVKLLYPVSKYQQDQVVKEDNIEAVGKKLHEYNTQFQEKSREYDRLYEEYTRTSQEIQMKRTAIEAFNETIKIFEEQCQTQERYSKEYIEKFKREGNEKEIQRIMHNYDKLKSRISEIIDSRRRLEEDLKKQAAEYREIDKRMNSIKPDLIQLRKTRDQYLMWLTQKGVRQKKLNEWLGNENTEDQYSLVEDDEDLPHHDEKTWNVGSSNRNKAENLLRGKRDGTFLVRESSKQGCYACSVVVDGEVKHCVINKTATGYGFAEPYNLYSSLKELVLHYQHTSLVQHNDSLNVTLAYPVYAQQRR
Description: The effects of Compound B on the activities of class I PI3K isoforms were measured using an in vitro biochemical enzyme assay at steady-state concentrations of adenosine triphosphate (ATP). Compound B is (S)-2-(1-((9H-purin-6-yl)amino)propyl)-5-fluoro-3-phenylquinazolin-4(3H)-one as described above.
A time resolved fluorescence resonance energy transfer (TR-FRET) assay was used to monitor the formation of […] (PIP3) molecule, as it competed with fluorescently labeled PIP3 for binding to the GRP-1 pleckstrin homology domain protein.

WIL2-S target cells = assay: Antibody-dependent cellular phagocytosis (ADCP) with polarized macrophages; assay type: cell-based; conditions: Homo sapiens, Macrophage, 256 nM
Description: Next, antibody-dependent cellular phagocytosis (ADCP) was characterized. The CD14^+ negatively selected monocytes (Astarte Biologics, Bothell, Wash.) were cultured in Gibco AIM V Medium CTS (Life Technologies, Grand Island, N.Y.) with macrophage colony-stimulating factor (PeproTech, Rocky Hill, N.J.) at 60 ng/mL. At Day 6 or 7, monocyte-derived macrophages were washed and plated with polarizing cytokines. For differentiation to M1 macrophages, cells were plated with interferon-γ 100 ng/mL (R&D Systems, Minneapolis, Minn.) and lipopolysaccharides from E. coli 055:B5 100 ng/mL (Sigma-Aldrich, St Louis, Mo.) for 24 hours. For differentiation to M2c macrophages, cells were plated in interleukin-10 10 ng/mL (R&D Systems) for 48 hours. Compound B titration was added to the plated macrophages and incubated at 37° C. for about 1 hour. […] Cells were then stained with pooled FITC anti-CD14 (Becton, Dickinson and Company, Franklin Lakes, N.J.) and FITC anti-CD11b (eBioscience, San Diego, Calif.), harvested from 96-well plates with Accutase (Merck Millipore, Darmstadt, Germany) and vigorous pipetting, and analyzed on an LSR II flow cytometer (Becton, Dickinson and Company). Double-positive cells (FITC+CellTracker Red) represented phagocytized target cells and the levels of phagocytosis were calculated as % double-positive cells/% double positive cells+% target cells alone×100. […]

Ri-1 DLBCL cells = assay: Cell death assay (Annexin V/7AAD) in Ri-1 DLBCL cells; assay type: cell-based; conditions: 3 days
Description: Further, whole blood (WB) autologous B-cell depletion and cell-death induction assays were conducted as described in Mossner et al., Blood 115:4393-402, 2010. For cell death assay: Ri-1 DLBCL cells were seeded at 15,000 cells/well in 96-well plates. Cells were preincubated with Compound B or DMSO for 1 hour before the addition of antibody. Plates were incubated at 37° C. in a humidified CO2 chamber for 3 days. Cells were washed once with PBS and treated with Accutase for 15 minutes before being stained with Guava Nexin® reagent and analyzed on the Guava EasyCyte flow cytometer (Merck Millipore).
After 3 days of incubation, cell death was assessed by Annexin V/7AAD staining.

p-AKT Ser473 [3] = assay: Western blot, TPO-activated AKT phosphorylation in UT-7/TPO cells; assay type: cell-based; conditions: then TPO
Description: as §1

pS6RP Ser235/236 = assay: Flow cytometry, basal S6RP phosphorylation in CD34+ progenitor cells from MF patients; assay type: cell-based, human; conditions: data not shown
Description: PBMCs were isolated from whole blood of myelofibrosis (MF) patients who had not received treatments (i.e. naïve patients) or received ruxolitinib (i.e. rux-treated patients). The cells were treated with 0.02, 0.2, or 2.0 μM of Compound B or vehicle (0.1% DMSO in 0.1% FBS/RPMI) for 2 hours at 37° C. The cells were then fixed, permeabilized, and stained for FACS analysis. Antibodies specific to p-AKT Ser473 and pS6RP Ser235/236 were used to detect AKT phosphorylation (p-AKT) and S6RP phosphorylation (p-S6RP) in CD34^+/CD3^−/CD14^−/CD19/CD66^− (BD Biosciences) gated cells using flow cytometry. The percentage of basal (i.e. untreated with TPO) AKT and S6RP phosphorylation were normalized to vehicle control. A two-tailed paired t-test (GraphPad Prism) was used to calculate p-values. Values of p<0.05 were considered significant.
Similar studies were conducted with PI3K inhibitors Compounds C and D. PBMC from MF patients had received ruxolitinib (rux) and MF patient had received Compound A. The cells were treated with Compounds C or D at 0, 20.0, 200.0, 2000.0 nM for 2 hours at 37° C. Cells were treated with TPO for 10 minutes. The percentage of basal p-AKT and p-S6RP levels were normalized to vehicle control and those of TPO-treated were normalized to TPO-treated vehicle control. The PI3Kδ inhibitors Compound C is referred by the chemical names of (S)-2-(1-((9H-purin-6-yl)amino)ethyl)-6-fluoro-3-phenylquinazolin-4(3H)-one.

## CC[C@H](Nc1ncnc2[nH]cnc12)c1nc2cccc(F)c2c(=O)n1-c1ccccc1 [Compound B, (S)-2-(1-((9H-purin-6-yl)amino)propyl)-5-fluoro-3-phenylquinazolin-4(3H)-one]
p-AKT Ser473 [1]; 0.1 μM 2 h
  reduced p-AKT levels vs vehicle: 51%
p-AKT Ser473 [1]; 1.0 μM 2 h
  reduced p-AKT levels vs vehicle: 64%
p-AKT Ser473 [1]; 2.0 μM 2 h
  reduced p-AKT levels vs vehicle: 67%
[2]
  maximal average plasma concentration (Cmax), adjusted for protein binding: 0.256 µM
PI3Kδ
  selectivity among PI3K isoforms: selective inhibitor to PI3Kδ
PI3Kδ; steady-state ATP
  inhibition to PI3Kδ compared to PI3Kα: 450 fold
  inhibition to PI3Kδ compared to PI3Kβ: 210 fold
  inhibition to PI3Kδ compared to PI3Kγ: 110 fold
WIL2-S target cells
  inhibition at 0.256 µM: < 30%
Ri-1 DLBCL cells; 100 nM Compound B alone
  Percentage of total Annexin V+ cells: 28% and 27%
Ri-1 DLBCL cells; 300 nM Compound B alone
  Percentage of total Annexin V+ cells: 31% and 33%
Ri-1 DLBCL cells; 600 nM Compound B alone
  Percentage of total Annexin V+ cells: 35% and 37%
p-AKT Ser473 [3]; 0.1 μM 2 h
  reduced p-AKT levels vs vehicle: 11%
p-AKT Ser473 [3]; 1.0 μM 2 h
  reduced p-AKT levels vs vehicle: 44%
p-AKT Ser473 [3]; 2.0 μM 2 h
  reduced p-AKT levels vs vehicle: 55%
pS6RP Ser235/236
  basal p-S6RP level vs untreated cells: reduced levels
